Laboratory results as given in ChEMBL document CHEMBL1201862, “PubChem BioAssay data set” (2004).
The source made the active and inactive calls.

Experiments:
[1] = molecular target: T1, RNA-binding protein pos-1 (Caenorhabditis elegans, UniProt G5EF15); assay: inhibitors of POS-1/mex-3 RNA binding, dose response, biochemical, fluorescence polarization (AID 1964);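 note: purified POS-1 fused to maltose binding protein made in E. coli; potency of compounds blocking POS-1 binding to fluorescent RNA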
T1 sequence (G5EF15 whole entry): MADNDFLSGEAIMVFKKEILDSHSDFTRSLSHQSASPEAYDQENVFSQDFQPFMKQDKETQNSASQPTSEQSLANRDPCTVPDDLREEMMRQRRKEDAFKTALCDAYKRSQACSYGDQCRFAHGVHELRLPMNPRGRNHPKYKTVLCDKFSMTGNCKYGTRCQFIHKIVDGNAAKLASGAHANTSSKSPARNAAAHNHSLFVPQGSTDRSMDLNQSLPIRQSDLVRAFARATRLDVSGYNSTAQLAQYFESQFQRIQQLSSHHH

[2] = molecular target: T2, Zinc finger protein mex-5 (Caenorhabditis elegans, UniProt Q9XUB2); assay: MEX-5/TCR-2 RNA interaction inhibitors, dose response, biochemical, C. elegans, fluorescence polarization (AID 1960)
T2 sequence (Q9XUB2 whole entry): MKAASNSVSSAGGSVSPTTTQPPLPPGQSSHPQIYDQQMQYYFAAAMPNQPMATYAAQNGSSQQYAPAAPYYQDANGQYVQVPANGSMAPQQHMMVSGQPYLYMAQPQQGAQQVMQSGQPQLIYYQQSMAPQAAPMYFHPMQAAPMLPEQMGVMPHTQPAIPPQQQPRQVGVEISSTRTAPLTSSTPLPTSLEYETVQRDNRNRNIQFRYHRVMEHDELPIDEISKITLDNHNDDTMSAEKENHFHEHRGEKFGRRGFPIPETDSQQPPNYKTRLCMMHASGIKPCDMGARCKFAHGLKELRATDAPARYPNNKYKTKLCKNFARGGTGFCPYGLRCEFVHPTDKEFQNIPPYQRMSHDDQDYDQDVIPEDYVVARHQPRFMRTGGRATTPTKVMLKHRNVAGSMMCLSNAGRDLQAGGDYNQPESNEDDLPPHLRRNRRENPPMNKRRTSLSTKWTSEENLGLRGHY

[3] = molecular target: T3, Replicative DNA helicase DnaB (Mycobacterium tuberculosis, UniProt P9WMR3); assay: DnaB intein splicing inhibitors, dose response, biochemical, cell-free fluorescence (AID 449749); format: functional
T3 sequence (P9WMR3 whole entry): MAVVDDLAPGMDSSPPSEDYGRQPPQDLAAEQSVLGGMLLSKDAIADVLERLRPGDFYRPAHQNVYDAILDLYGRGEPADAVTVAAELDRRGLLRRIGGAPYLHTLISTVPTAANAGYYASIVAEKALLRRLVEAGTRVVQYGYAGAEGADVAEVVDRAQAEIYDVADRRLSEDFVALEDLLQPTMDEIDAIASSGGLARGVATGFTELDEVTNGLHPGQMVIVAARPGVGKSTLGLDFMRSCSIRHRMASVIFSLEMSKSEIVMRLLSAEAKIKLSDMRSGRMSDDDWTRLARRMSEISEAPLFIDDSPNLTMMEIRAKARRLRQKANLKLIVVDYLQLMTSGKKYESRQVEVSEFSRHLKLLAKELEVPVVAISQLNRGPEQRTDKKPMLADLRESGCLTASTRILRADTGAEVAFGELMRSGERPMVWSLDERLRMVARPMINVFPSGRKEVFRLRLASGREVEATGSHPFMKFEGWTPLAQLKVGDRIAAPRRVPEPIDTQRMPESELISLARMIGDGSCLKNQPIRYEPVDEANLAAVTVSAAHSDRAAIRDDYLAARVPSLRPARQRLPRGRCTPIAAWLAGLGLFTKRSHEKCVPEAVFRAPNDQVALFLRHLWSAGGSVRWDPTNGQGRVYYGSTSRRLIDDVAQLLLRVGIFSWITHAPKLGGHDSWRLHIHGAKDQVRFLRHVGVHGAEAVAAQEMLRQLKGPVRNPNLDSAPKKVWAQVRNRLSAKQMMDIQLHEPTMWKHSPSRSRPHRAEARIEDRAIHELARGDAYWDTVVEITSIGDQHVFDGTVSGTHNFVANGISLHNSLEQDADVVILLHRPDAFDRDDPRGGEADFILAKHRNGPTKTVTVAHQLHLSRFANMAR

[4] = molecular target: T4, Protein RecA (Mycobacterium tuberculosis, UniProt P9WHJ3); assay: Fluorescence Cell-Free Homogeneous Dose Retest to Identify Inhibitors of RecA-Intein Splicing Activity. [Related pubchem assays (depositor defined):AID2097, AID2223, AID489010, AID492950]; format: functional
T4 sequence (P9WHJ3 whole entry): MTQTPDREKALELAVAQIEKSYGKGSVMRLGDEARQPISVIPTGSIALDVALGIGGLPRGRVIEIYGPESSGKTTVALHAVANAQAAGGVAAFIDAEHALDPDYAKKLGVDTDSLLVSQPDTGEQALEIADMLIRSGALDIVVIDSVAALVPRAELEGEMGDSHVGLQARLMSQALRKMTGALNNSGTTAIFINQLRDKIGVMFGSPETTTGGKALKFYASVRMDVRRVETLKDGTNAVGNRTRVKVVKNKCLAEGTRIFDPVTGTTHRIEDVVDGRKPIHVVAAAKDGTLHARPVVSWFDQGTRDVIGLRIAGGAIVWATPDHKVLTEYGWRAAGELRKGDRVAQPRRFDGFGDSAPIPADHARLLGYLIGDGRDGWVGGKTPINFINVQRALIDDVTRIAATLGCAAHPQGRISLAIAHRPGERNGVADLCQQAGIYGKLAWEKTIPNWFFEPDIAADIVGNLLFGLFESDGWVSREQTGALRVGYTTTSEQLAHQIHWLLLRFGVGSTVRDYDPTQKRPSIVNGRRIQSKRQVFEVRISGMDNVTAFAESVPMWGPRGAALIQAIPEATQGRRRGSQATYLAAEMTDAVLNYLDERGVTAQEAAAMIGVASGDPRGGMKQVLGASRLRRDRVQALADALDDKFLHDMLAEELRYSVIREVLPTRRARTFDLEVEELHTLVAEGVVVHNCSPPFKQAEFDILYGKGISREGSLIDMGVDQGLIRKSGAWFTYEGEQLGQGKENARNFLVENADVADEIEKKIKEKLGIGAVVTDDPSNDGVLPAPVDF

[5] = molecular target: T5, Sentrin-specific protease 8 (Homo sapiens, UniProt Q96LD8); format: functional
T5 sequence (Q96LD8 whole entry): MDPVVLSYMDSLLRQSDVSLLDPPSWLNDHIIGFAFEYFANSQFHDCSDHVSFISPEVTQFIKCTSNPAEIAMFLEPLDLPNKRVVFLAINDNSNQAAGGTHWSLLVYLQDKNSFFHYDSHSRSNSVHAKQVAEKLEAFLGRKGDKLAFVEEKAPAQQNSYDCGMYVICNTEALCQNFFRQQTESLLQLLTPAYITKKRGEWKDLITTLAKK

[6] = molecular target: T5, Sentrin-specific protease 8; format: functional; remark: listed apart in the source
[7] = ARNT/TACC3 interaction disruptors, potency, confirmation, biochemical, AlphaScreen, cherry-picked samples (AID 651703); format: functional, Homo sapiens;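 note: His-tagged ARNT PAS-B domain paired with GST-TACC3 E629A dimer coactivator fragment; potency of inhibitors that break up the complex and lower AlphaScreen signal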
[8] = molecular target: T6, Tyrosyl-DNA phosphodiesterase 2 (Homo sapiens, UniProt O95551); assay: human TDP2 enzyme inhibitors, dose response, biochemical, epi absorbance, IC50 (AID 743297)
T6 sequence (O95551 whole entry): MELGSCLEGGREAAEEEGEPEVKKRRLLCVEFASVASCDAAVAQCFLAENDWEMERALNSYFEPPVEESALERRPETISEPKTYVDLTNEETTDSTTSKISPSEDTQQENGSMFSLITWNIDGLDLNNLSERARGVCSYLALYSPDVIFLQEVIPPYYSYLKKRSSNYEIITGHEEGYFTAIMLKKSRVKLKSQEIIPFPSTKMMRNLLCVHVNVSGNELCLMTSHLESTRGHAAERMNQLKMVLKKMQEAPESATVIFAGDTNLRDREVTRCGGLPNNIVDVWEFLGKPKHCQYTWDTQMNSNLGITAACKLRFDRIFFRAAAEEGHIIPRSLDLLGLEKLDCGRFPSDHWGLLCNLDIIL

[9] = HEK293T cell cytotoxicity, dose response, cytotoxicity control for HIV Vif inhibitor project, cherry-picks (AID 652208); format: functional, cell-based
[10] = tested on: Streptococcus sp. 'group A'; assay: growth inhibition of control SK(-) GAS strain, dose response, counter-screen for streptokinase expression inhibitor project, luminescence, kanamycin, BacTiterGlo, confirmation (AID 1900); format: functional, organism-based
[11] = tested on: Streptococcus; assay: Group A Streptococcus viability loss, dose response, counter-screen for streptokinase expression inhibitor project, luminescence, BacTiterGlo (AID 1915); format: functional, organism-based;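 note: potency for reduction of bacterial viability or growth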
[12] = Luminescence Cell-Based Dose Retest to Confirm Inhibitors of Cancer Stem Cells. [Related pubchem assays (depositor defined):AID2717, AID2721]; format: functional; conditions: Homo sapiens
[13] = molecular target: T7, Corticotropin-releasing factor receptor 2/Corticotropin-releasing factor-binding protein (Homo sapiens, UniProt P24387+Q13324); assay: Dose Response confirmation of uHTS hits for small molecule antagonists of the CRF-binding protein and CRF-R2 receptor complex.; format: functional; conditions: read-out: IC50_Mean
T7 sequence (Q13324 whole entry): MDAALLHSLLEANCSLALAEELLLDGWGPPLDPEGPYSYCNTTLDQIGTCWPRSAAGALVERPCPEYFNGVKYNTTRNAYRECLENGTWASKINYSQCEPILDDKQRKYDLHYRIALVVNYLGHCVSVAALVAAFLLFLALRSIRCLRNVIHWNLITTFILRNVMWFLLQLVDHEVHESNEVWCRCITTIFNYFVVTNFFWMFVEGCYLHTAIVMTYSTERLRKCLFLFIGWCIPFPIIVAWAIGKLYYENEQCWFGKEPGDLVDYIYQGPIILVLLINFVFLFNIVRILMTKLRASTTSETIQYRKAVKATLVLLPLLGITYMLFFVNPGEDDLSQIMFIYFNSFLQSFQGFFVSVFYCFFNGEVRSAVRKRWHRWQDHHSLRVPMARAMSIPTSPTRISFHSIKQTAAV
T7 sequence (P24387 whole entry): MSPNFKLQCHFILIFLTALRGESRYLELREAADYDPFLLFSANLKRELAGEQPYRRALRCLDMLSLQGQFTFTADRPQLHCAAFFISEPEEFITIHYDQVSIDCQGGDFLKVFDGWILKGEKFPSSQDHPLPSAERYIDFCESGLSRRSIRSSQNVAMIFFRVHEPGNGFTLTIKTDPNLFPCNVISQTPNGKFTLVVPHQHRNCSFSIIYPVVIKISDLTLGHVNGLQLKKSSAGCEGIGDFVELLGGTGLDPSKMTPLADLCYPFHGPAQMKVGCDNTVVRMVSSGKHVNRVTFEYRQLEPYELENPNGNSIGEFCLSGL

[14] = molecular target: T7, Corticotropin-releasing factor receptor 2/Corticotropin-releasing factor-binding protein; assay: activators of CRF receptor 2 with binding protein – uHTS hits, confirmation (AID 602473); format: functional; conditions: read-out: EC50_Mean
[15] = molecular target: Galanin receptor type 3 (Homo sapiens, UniProt O60755); assay: Fluorescence-based cell-based primary high throughput dose response assay to identify antagonists of the Galanin Receptor 3 (GalR3).; format: functional
Galanin receptor type 3, sequence (O60755 whole entry): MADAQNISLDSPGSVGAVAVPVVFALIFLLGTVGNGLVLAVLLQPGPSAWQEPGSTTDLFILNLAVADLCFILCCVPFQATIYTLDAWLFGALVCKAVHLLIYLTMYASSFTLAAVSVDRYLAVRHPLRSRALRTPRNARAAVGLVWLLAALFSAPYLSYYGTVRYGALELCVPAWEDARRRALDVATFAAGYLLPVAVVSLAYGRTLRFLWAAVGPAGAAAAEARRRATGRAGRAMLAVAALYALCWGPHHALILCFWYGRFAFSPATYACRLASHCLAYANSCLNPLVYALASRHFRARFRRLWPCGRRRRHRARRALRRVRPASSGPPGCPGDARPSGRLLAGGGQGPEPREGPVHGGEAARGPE

[16] = cells; format: functional, cell-based; conditions: HEK-CNG
[17] = off-target signal loss in HeLa-CEM21 co-culture – HeLa F-luc CTL cells, cherry-picked, counter-screen for HIV-1 Env fusion inhibitor project, dose response (AID 652040); format: functional, cell-based;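 note: potency for signal decrease marking cytotoxic or nonspecific inhibition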
[18] = inhibitors of clade B AD8 Env fusion, dose response, cell-based, cherry-pick (AID 652062); format: functional;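 note: luciferase signal from cell-cell fusion driven by HIV-1 clade B AD8 Env; potency is for inhibitors of fusion seen as a drop in luminescence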
[19] = molecular target: Cytochrome P450 2C9 (Homo sapiens, UniProt P11712)
Cytochrome P450 2C9, sequence (P11712 whole entry): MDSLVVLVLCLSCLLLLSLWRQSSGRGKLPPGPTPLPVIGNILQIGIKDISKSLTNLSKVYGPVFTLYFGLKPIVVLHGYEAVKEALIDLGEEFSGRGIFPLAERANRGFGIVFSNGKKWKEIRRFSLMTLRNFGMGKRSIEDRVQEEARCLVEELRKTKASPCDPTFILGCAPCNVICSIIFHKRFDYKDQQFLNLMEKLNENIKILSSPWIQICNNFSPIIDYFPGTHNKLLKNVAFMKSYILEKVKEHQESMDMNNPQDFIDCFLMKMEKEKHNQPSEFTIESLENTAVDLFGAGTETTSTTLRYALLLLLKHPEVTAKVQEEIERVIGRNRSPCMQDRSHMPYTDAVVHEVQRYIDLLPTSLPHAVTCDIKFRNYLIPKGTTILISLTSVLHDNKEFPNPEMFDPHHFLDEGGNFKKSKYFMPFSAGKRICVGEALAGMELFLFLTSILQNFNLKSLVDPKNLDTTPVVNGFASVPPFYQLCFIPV

[20] = cells; format: functional, cell-based
[21] = molecular target: T8, Trace amine-associated receptor 1 (Homo sapiens, UniProt Q96RJ0); assay: Fluorescence-based cell-based high throughput dose response assay to identify agonists of the human trace amine associated receptor 1 (TAAR1).; format: functional
T8 sequence (Q96RJ0 whole entry): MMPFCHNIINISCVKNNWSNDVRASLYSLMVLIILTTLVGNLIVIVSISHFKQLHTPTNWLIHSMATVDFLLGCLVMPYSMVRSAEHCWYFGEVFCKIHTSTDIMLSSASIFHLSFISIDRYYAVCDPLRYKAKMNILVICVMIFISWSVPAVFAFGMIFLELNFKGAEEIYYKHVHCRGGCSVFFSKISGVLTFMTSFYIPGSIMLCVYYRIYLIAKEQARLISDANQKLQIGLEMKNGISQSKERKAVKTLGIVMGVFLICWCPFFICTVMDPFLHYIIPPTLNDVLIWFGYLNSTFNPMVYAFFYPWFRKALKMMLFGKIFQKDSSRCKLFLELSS

[22] = molecular target: T8, Trace amine-associated receptor 1; assay: Counterscreen for agonists of the human trace amine associated receptor 1 (hTAAR1): Fluorescence-based cell-based high throughput dose response assay to identify hTAAR1 agonist that also desensitize TAAR1 receptor response.; format: functional
[23] = cells; format: functional, cell-based; remark: listed apart in the source
[24] = NIH/3T3 fibroblast cytotoxicity, dose response, cytotoxicity control for T. cruzi growth inhibitor project, cell-based, cherry-pick samples, set 2 (AID 651817); format: functional; conditions: NIH3T3

Structure (SMILES): Cc1n[nH]c(O)c1C(c1ccc(-c2ccccc2C(=O)O)o1)c1c(C)n[nH]c1O
- EC50 [1]: 148 µM (active)
- EC50 [2]: 37 µM (active)
- AC50 [3]: 335 nM (active)
- EC50 [4]: 256 nM (active)
- IC50 [5]: > 100 µM (inactive)
- IC50 [6]: 16.4 µM (active)
- AC50 [7]: 82.1 µM (active)
- IC50 [8]: > 128 µM (inactive)

Structure (SMILES): COc1cc(NC(=O)c2ccc(-c3csc(C)n3)cc2)c(OC)cc1Cl
- AC50 [9]: 38.2 µM (active)

Structure (SMILES): Cc1nn2c(COc3ccc(NC(=O)c4ccccc4Cl)cc3)nnc2c2ccccc12
- EC50 [10]: 2.06 µM (active)
- EC50 [11]: 1.36 µM (active)
- AC50 [12]: 2.59 µM (active)
- AC50 [9]: > 52 µM (inactive)

Structure (SMILES): Cc1nn(C)c(Cl)c1NC(=O)OCc1ccc(Cl)cc1Cl
- IC50 [13]: > 47.1 µM (inactive)
- EC50 [14]: > 53 µM (inactive)
- IC50 [15]: 2.13 µM (active)
- EC50 [16]: > 29.9 µM (inactive)
- AC50 [17]: > 70 µM (inactive)
- AC50 [18]: 22.5 µM (active)
- AC50 [19]: inconclusive

Structure (SMILES): O=C(CSC1=Nc2ccc(Cl)cc2S(=O)(=O)N1)NCCc1ccccc1
- IC50 [20]: > 29.9 µM (inactive)
- EC50 [21]: 295 nM (active)
- IC50 [22]: 2.41 µM (active)
- EC50 [23]: > 29.9 µM (inactive)

Structure (SMILES): C[C@H](CO)N1C[C@H](C)[C@H](CN(C)Cc2ccc(Cl)c(Cl)c2)Oc2c(NC(=O)c3ccncc3)cccc2C1=O
- AC50 [24]: 39 µM (inactive)

Structure (SMILES): COc1ccc(CN(C)C[C@H]2Oc3c(NC(=O)Nc4ccc(C(F)(F)F)cc4)cccc3C(=O)N([C@@H](C)CO)C[C@@H]2C)cc1
- AC50 [24]: 14.4 µM (active)
